Here are results for ten molecules from patent publication US9073961B2, “Substitution derivatives of N6 -benzyladenosine-5′-monophosphate, methods of preparation thereof, use thereof as medicaments, and therapeutic preparations containing these compounds” (UNIVERZITA PALACKEHO V OLOMOUCI, priority 2010, dated 2015).

One assay deals with Human lymphocytes. Nature of the assay: Immunosuppressive activity, 3H-thymidine incorporation in concanavalin A activated lymphocytes. The class given is cell-based. Conditions: 72 hours, [3H]-TdR incorporation, read-out: Human lymphocytes ED50. The text has this:
One of the most important parameters of specific cellular immunity is the proliferative response of lymphocytes to antigens or polyclonal mitogens. The majority of normal mammalian peripheral lymphocytes comprise resting cells. Antigens or nonspecific polyclonal mitogens have the capacity to activate lymphoid cells and this is accompanied by dramatic changes of intracellular metabolism (mitochondrial activity, protein synthesis, nucleic acids synthesis, formation of blastic cells and cellular proliferation). […] Variety of in vitro assays was developed to measure proliferative response of lymphocytes. The most commonly used is ^3H-thymidine incorporation method.
During cell proliferation, DNA has to be replicated before the cell is divided into two daughter cells. This close association between cell doublings and DNA synthesis is very attractive for assessing cell proliferation. If labelled DNA precursors are added to the cell culture, cells that are about to divide incorporate the labelled nucleotide into their DNA. Traditionally, those assays usually involve the use of radiolabelled nucleosides, particularly tritiated thymidine ([^3H]-TdR). The amount of [^3H]-TdR incorporated into the cellular DNA is quantified by liquid scintillation counting.
Human heparinized peripheral blood was obtained from healthy volunteers by cubital vein punction. The blood was diluted in PBS (1:3) and mononuclear cells were separated by centrifugation in Ficoll-Hypaque density gradient (Pharmacia, 1.077 g/ml) at 2200 rpm for 30 minutes. Following centrifugation, lymphocytes were washed in PBS and resuspended in cell culture medium (RMPI 1640, 2 mM glutamine, 100 U/ml penicillin, 100 μg/ml streptomycin, 10% fetal calf serum and sodium bicarbonate).
The cells were diluted at target density of 1.100.000 cells/ml and were added by pipette (180 μl) into 96-well microtiter plates. Four-fold dilutions of the intended test concentration were added at time zero in 20 μl aliquots to the microtiter plate wells. Usually, test compound was evaluated at six 4-fold dilutions. In routine testing, the highest well concentration was 266.7 μM. All drug concentrations were examined in duplicates. All wells with exception of unstimulated controls were activated with 50 μl of concanavalin A (25 μg/ml). Incubations of cells with test compounds lasted for 72 hours at 37° C., in 5% CO2 atmosphere and 100% humidity. At the end of incubation period, the cells were assayed by using the [^3H]-TdR:
Cell cultures were incubated with 0.5 μCi (20 μl of stock solution 500 μCi/ml) per well for 6 hours at 37° C. and 5% CO2. The automated cell harvester was used to lyse cells in water and adsorb the DNA onto glass-fiber filters in the format of microtiter plate. The DNA incorporated [^3H]-TdR was retained on the filter while unincorporated material passes through. The filters were dried at room temperature overnight, sealed into a sample bag with 10-12 ml of scintillant. The amount of [^3H]-TdR present in each filter (in cpm) was determined by scintillation counting in a Betaplate liquid scintillation counter. The effective dose of immunosuppressant (ED) was calculated using the following equation: ED=(CCPMdrug exposed well/mean CCPMcontrol wells)×100%. The ED50 value, the drug concentration inhibiting proliferation of 50% of lymphocytes, was calculated from the obtained dose response curves.
To evaluate immunosuppressive activity of substituted adenines, their ability to inhibit polyclonal mitogen induced proliferation of normal human lymphocytes was analyzed (Table 4). […] Effective immunosuppressive dose of new derivatives under in vitro conditions was close to 10-40 μM.
(Incorporation of labelled thymidine or its analogues reports DNA synthesis.)

Assay [1] relates to HOS (human osteogenic sarcoma). Nature of the assay: Calcein AM cytotoxicity assay, HOS. The class given is cell-based. The note with it: 72 hours incubation. An excerpt: (§1) Because toxic compounds negatively influence metabolic processes in cells, many standard cytotoxicity assays are based on measurement of metabolisation rate of various artificial substrates. Resulting product is then quantified e.g. by means of spectrometry. The assays can be easily modified for use in 96-well plates. For evaluation of cytotoxic effect of the novel substituted 9-substituted cytokinin derivatives of this invention, a microtiter assay based on quantification of metabolisation of Calcein AM was used. The assay is widely used in drug screening programs and in chemosensitivity testing. In the living cells, Calcein AM is enzymatically hydrolysed and accumulation of resulting calcein is manifested by green fluorescence.
(§2) In the routine screening the following cell lines have been used: CEM (T-lymphoblastoid leukemia), HL-60 (promyelocytic leukemia), K-562 (human erythroleukemia), MCF-7 (breast carcinoma), HOS (human osteogenic sarcoma), and G-361 (human malignant melanoma). Normal human fibroblasts BJ were used as a control for routine screening of the compounds. The cells were kept in Nunc/Corning 80 cm^2 plastic bottles and grown in cell culture medium (DMEM containing 5 g/l glucose, 2 mM glutamine, 100 U/ml penicilline, 100 μg/ml streptomycine, 10% fetal bovine serum and sodium hydrogencarbonate), the compounds were prepared according to the procedure of the present invention.
(§3) The cell suspensions were prepared and diluted according to the particular cell type and the expected target cell density (2.500-30.000 cells per well based on cell growth characteristics) and pippetted (80 μl) into 96-well plates. Inoculates were allowed a pre-incubation period of 24 hours at 37° C. and 5% CO2 for stabilisation. Tested compound was added in total volume of 20 μl of water at time zero. Usually, test compound was evaluated at six 3-fold dilutions. In routine testing, the highest concentration tested was 166.7 μM. All drug concentrations were tested in triplicates. Incubations of cells with the test compounds lasted for 72 hours at 37° C., in 5% CO2 atmosphere and 100% humidity. At the end of incubation period Calcein AM in PBS was added into final concentration of 1 μg/ml. After another 1 hour of incubation fluorescence (FD) was measured with the Labsystem FIA Reader Fluoroscan Ascent (Microsystems). Tumor cell survival (TCS) was estimated using the following equation: […]=(FDdrug exposed well/FDcontrol well)×100%. The GI50 value, the drug concentration causing 50% reduction of esterase activity, was calculated from the obtained dose response curves (FIG. 1).
(§4) Cytoxicity of novel compounds was tested on panel of cell lines of different histogenetic and species origin (Table 3). […] The effective novel derivatives killed tumour cells in concentrations close to 0.1-50 μM.

The test system of assay [2] is K-562 (human erythroleukemia). Nature of the assay: Calcein AM cytotoxicity assay, K-562. Type of assay: cell-based. Conditions: 72 hours incubation.
From the text: as §1, §2, §3, §4

The test system of a further assay is MCF-7 (breast carcinoma). The assay can be described thus: Calcein AM cytotoxicity assay, MCF7. Type of assay: cell-based. The note with it: 72 hours incubation.
From the text: as §1, §2, §3, §4

In assay [3] the test system is CEM (T-lymphoblastoid leukemia). Nature of the assay: Calcein AM cytotoxicity assay, CEM. The class given is cell-based. The note with it: 72 hours incubation, Calcein AM.
From the text: as §1, §2, §3, §4

In assay [4] the test system is HL-60 (promyelocytic leukemia). Nature of the assay: Calcein AM cytotoxicity assay, HL60. The class given is cell-based, human. The note with it: 72 hours incubation.
From the text: as §1, §2, §3, §4

For assay [5], the system named is cytokinin-dependent tobacco callus Nicotiana tabacum L. cv. Wisconsin 38. The assay can be described thus: Growth of cytokinin-dependent tobacco callus. The note with it: for Activity (%) [10^−5 mol · l^−1 KR = 100%]: at concentration with highest activity, relative to control cytokinin; for Concentration with highest activity: tobacco callus fresh weight after four weeks. Type of assay: cell-based. The procedure:
Cytokinin effect of newly prepared derivatives was tested using cytokinin-dependent tobacco callus. The cytokinin-dependent tobacco callus Nicotiana tabacum L. cv. Wisconsin 38 was maintained at 25° C. in darkness on modified MS medium, containing per 1 liter: 4 μmol of nicotinic acid, 2.4 μmol of pyridoxine hydrochloride, 1.2 μmol of thiamine, 26.6 μmol of glycine, 1.37 μmol of glutamine, 1.8 μmol of myo-inositol, 30 g of sucrose, 8 g of agar, 5.37 μmol of NAA and 0.5 μmol of the compound tested. Subcultivation was carried out every three weeks. Fourteen days before the bioassay, the callus tissue was transferred to the media without 6-benzylaminopurine. The biological activity was determined from the increase of the fresh callus weight after four weeks of cultivation. Five replicates were prepared for each concentration of the compound tested and the entire test was repeated twice. […] The compounds to be tested were dissolved in dimethylsulfoxide (DMSO) and the solution brought up to 10^−3 M with distilled water. […] The stimulatory activity was calculated from the dose-dependent fresh weight callus growth curves.
From the obtained data, the concentration with the highest activity was selected for each compound tested. Relative activity of the compound at this concentration was calculated (Table 5). […]

In assay [6] the test system is Normal human fibroblasts BJ. Nature of the assay: Calcein AM cytotoxicity assay, BJ. Type of assay: cell-based. Conditions: 72 hours incubation.
From the text: as §1, §2, §3, §4

Take `O=P(O)(O)OC[C@H]1O[C@@H](n2cnc3c(NCc4cccc(Cl)c4O)ncnc32)[C@H](O)[C@@H]1O` [2-hydroxy-3-chlorobenzylamino, 6-(2-hydroxy-3-chlorobenzylamino)purine ribo side-5′-monophosphate]: in the assay with Human lymphocytes, the EC50 was found to be 3.2 µM.
On to `COc1ccc(CNc2ncnc3c2ncn3[C@@H]2O[C@H](COP(=O)(O)O)[C@@H](O)[C@H]2O)c(O)c1` [2-hydroxy-4-methoxybenzylamino, 6-(2-hydroxy-4-methoxybenzylamino)purine riboside-5′-monophosphate], for which the EC50 in the assay on Human lymphocytes came to 2.1 µM.
Consider `O=P(O)(O)OC[C@H]1O[C@@H](n2cnc3c(NCc4ccc(O)c(O)c4)ncnc32)[C@H](O)[C@@H]1O` [3,4-dihydroxybenzylamino, 6-(3,4-dihydroxybenzylamino)purine riboside-5′-monophosphate], for which the EC50 in the assay on Human lymphocytes worked out at 9.4 µM.
`O=P(O)(O)OC[C@H]1O[C@@H](n2cnc3c(NCc4ccccc4F)ncnc32)[C@H](O)[C@@H]1O` [Compound 1, 6-(2-fluorobenzylamino)purine riboside-5′-monophosphate]: the GI50 was > 167 µM in assay [1]; 33.2 µM in assay [2]; > 167 µM in the assay with MCF-7 (breast carcinoma); 4.6 µM in assay [3]; 3.2 µM in assay [4]. Besides, the EC50 in the assay on Human lymphocytes came to 6.3 µM. In assay [5], the “Activity (%) [10^−5 mol · l^−1 KR = 100%]” value (“Activity (%)” for short) turned out to be 100 ± 9%. Besides, in assay [5], the “Concentration with highest activity” value is 10^−6 mol · l^−1.
Turning to `O=P(O)(O)OC[C@H]1O[C@@H](n2cnc3c(NCc4ccc(F)cc4)ncnc32)[C@H](O)[C@@H]1O` [Compound 3, 6-(4-fluorobenzylamino)purine riboside-5′-monophosphate], the GI50 in assay [1] was 20 µM; in assay [2], 6.4 µM; in the assay on MCF-7 (breast carcinoma), 14 µM; in assay [6] it was > 167 µM; in assay [3], 1.5 µM; in assay [4], 0.86 µM. Moreover, the EC50 in the assay with Human lymphocytes is 13.4 µM.
With `O=P(O)(O)OC[C@H]1O[C@@H](n2cnc3c(NCc4ccccc4Cl)ncnc32)[C@H](O)[C@@H]1O` [Compound 4, 6-(2-chlorobenzylamino)purine riboside-5′-monophosphate], the GI50 was > 167 µM in assay [1]; 64 µM in assay [2]; > 167 µM with MCF-7 (breast carcinoma); > 167 µM in assay [6]; 14.5 µM in assay [3]; 1.6 µM in assay [4]. Further, the EC50 in the assay with Human lymphocytes worked out at 8.7 µM. Also, in assay [5], the “Activity (%)” value stood at 121 ± 4%. The “Concentration with highest activity” value in assay [5] is given as 10^−6 mol · l^−1.
With `O=P(O)(O)OC[C@H]1O[C@@H](n2cnc3c(NCc4cccc(Cl)c4)ncnc32)[C@H](O)[C@@H]1O` [Compound 5, 6-(3-chlorobenzylamino)purine riboside-5′-monophosphate], the GI50 in assay [1] was > 167 µM; in assay [2], 30.4 µM; in the assay with MCF-7 (breast carcinoma), > 167 µM; in assay [6], > 167 µM; in assay [3], 1.6 µM; in assay [4], 0.75 µM. Further, the EC50 in the assay on Human lymphocytes was found to be 3.2 µM. Moreover, in assay [5], the “Activity (%)” value is on record as 109 ± 5%. Moreover, the “Concentration with highest activity” value in assay [5] is given as 10^−5 mol · l^−1.
Consider `O=P(O)(O)OC[C@H]1O[C@@H](n2cnc3c(NCc4ccc(Cl)cc4)ncnc32)[C@H](O)[C@@H]1O` [Compound 6, 6-(4-chlorobenzylamino)purine riboside-5′-monophosphate], for which the GI50 was > 167 µM in assay [1]; 16.1 µM in assay [2]; > 167 µM in the assay on MCF-7 (breast carcinoma); > 167 µM in assay [6]; 6.5 µM in assay [3]; 5.3 µM in assay [4]. The EC50 in the assay with Human lymphocytes came to 3.3 µM.
Take `Cc1cccc(CNc2ncnc3c2ncn3[C@@H]2O[C@H](COP(=O)(O)O)[C@@H](O)[C@H]2O)c1` [Compound 13, 6-(3-methylbenzylamino)purine riboside-5′-monophosphate]: the GI50 was > 167 µM in assay [1]; > 167 µM in assay [2]; > 167 µM in the assay with MCF-7 (breast carcinoma); > 167 µM in assay [6]; 19.1 µM in assay [3]; 6.4 µM in assay [4]. Further, in the assay on Human lymphocytes, the EC50 is 7.5 µM.
Regarding `O=P(O)(O)OC[C@H]1O[C@@H](n2cnc3c(NCc4ccc(F)c(Cl)c4)ncnc32)[C@H](O)[C@@H]1O` [Compound 41, 6-(3-chloro-4-fluorobenzylamino)purine riboside-5′-monophosphate], the GI50 in assay [1] was > 167 µM; in assay [2] it was 4.1 µM; with MCF-7 (breast carcinoma), > 167 µM; in assay [6], > 167 µM; in assay [3], 3.4 µM; in assay [4], 3.5 µM. The “Activity (%)” value in assay [5] is recorded as 107 ± 4%. For the same molecule, the “Concentration with highest activity” value in assay [5] is on record as 10^−6 mol · l^−1.

For orientation: GI50 means the concentration that inhibits growth by half.
